Source: patent US9523081B2, “Method for enhancing therapeutic effect of stem cells on autoimmune diseases, cardiovascular diseases, and/or hematological diseases” (GWO XI STEM CELL APPLIED TECHNOLOGY CO., LTD., priority 2014, dated 2016)

Assays:
Type in all cases: cell-based
CXCR4 = assay: RT-PCR gene expression of CXCR4 in ligustilide-treated ADSCs; settings: for CXCR4 expression level (Image J): ADSCs, 24 hours
Procedure: (§1) ADSCs were cultured in the K-SFM as prepared in Example 1 at 37° C. in 5% CO2. The ADSCs were divided into […], and each group was treated with different concentrations (0, 0.625, 1.25, 2.5, 5 and 10 μg/ml) of (Z)-ligustilide for 24 hours, respectively.
(§2) The culture medium were removed from each group of stem cells in Experiment (1), then 1 ml of TRIzol reagent (Invitrogen) was added into each well and incubated at room temperature for 5 minutes. The stem cells were scraped by using a spatula and placed into a 1.5 ml microtube. Then, the cells were lysed completely, and 0.2 ml of trichloromethane (CHCl3) was added into the microtube. The microtube was shaken up and down for 15 seconds and incubated at room temperature for 2 to 3 minutes. The mixture was centrifuged (at 12000 g for 15 minutes at 4° C.). The supernatant was transferred into another 1.5 ml microtube, and 0.5 ml of isopropanol was added therein and mixed completely. The mixture was incubated at room temperature for 10 minutes and then centrifuged (at 12000 g for 10 minutes at 4° C.). The supernatant was removed. The remained sediment was washed with 1 ml of 75% ethanol-containing DEPC water (i.e. diethylpyrocarbonate-treated H2O) and centrifuged (7500 g at 4° C. for 5 minutes) again. The supernatant was removed. The remained sediment was dried by vacuum-pumping. The dried sediment was dissolved in about 0.01 ml to 0.02 ml of DEPC water to obtain total RNA of ADSCs of experimental group and blank group, respectively. The absorbance at a wavelength of 260 nm (OD260) of the samples were determined by a spectrophotometer (DU-800, Beckman) to evaluate the concentration of RNA. Then, the RNA was stored at −80° C. and used in the following Experiment (3).
(§3) The effects of ligustilide on increasing the expression of differentiation-promoting genes (e.g., BDNF and NURR1), increasing the expression of homing-promoting genes (e.g., CXCR4 and SDF1αβ), and decreasing the expression of inflammatory genes (e.g., IL-6 and IL-8) was analyzed by reverse transcription polymerase chain reaction (RT-PCR), wherein the gene expression of glyceraldehyde 3-phosphate dehydrogenase (GAPDH) was served as a control group, and the steps were described as follows.
(§4) The total RNA provided in the above Experiment (2) was reverse transcribed into cDNA. 2.5 μl of each primer (10 pM) shown in Table 1A, 7.5 μl of ddH2O, and 12.5 μl of EconoTaq® PLUS GREEN 2X Master Mix (Lucigen, Middleton, Wis., USA) were mixed with 2.5 μl of the cDNA. The mixture was placed in a RT-PCR machine. The reaction conditions were set as follows: i) 94° C. for 30 seconds, 55° C. for 30 seconds, and […], with 30 cycles of the aforesaid steps; ii) 72° C. for 10 minutes; and iii) cooling to 4° C. to stop the reaction
(§5) The obtained RT-PCR product was analyzed by 1.5% agarose gel electrophoresis for 30 minutes (voltage: 100 volts (V)). Then, the gel was placed in and stained with ethidium bromide (EtBr) for 10 minutes, and photographed by a gel image documentation system (DOC PRINT DP-001FDC, VilberLourmat France).

IL-8 = assay: RT-PCR gene expression of IL-8 in ligustilide-treated ADSCs; settings: for IL-8 expression level (Image J): ADSCs, 24 hours
Procedure: as §1, §2, §3, §4, §5

NURR1 = assay: RT-PCR gene expression of NURR1 in ligustilide-treated ADSCs; settings: for NURR1 expression level (Image J): ADSCs, 24 hours
Procedure: as §1, §2, §3, §4, §5

IL-6 = assay: RT-PCR gene expression of IL-6 in ligustilide-treated ADSCs; settings: for IL-6 expression level (Image J): ADSCs, 24 hours
Procedure: as §1, §2, §3, §4, §5

SDF1αβ = assay: RT-PCR gene expression of SDF1αβ in ligustilide-treated ADSCs; settings: for SDF1αβ expression level (Image J): ADSCs, 24 hours
Procedure: as §1, §2, §3, §4, §5

BDNF = assay: RT-PCR gene expression of BDNF in ligustilide-treated ADSCs; settings: for BDNF expression level (Image J): ADSCs, 24 hours
Procedure: as §1, §2, §3, §4, §5

[1] = ADSCs treated with ligustilide, compared to GAPDH control, in words

CCC/C=C1\OC(=O)C2=C1CCC=C2 [ligustilide, (Z)-ligustilide]
gene expression level of CXCR4 (CXCR4; [1]): increased | CXCR4 expression level (Image J) (CXCR4; 0.625 μg/ml ligustilide): 2744.11 | CXCR4 expression level (Image J) (CXCR4; 1.25 μg/ml ligustilide): 3719.23 | CXCR4 expression level (Image J) (CXCR4; 2.5 μg/ml ligustilide): 6539.03 | CXCR4 expression level (Image J) (CXCR4; 5 μg/ml ligustilide): 4138.77 | gene expression level of IL-8 (IL-8; [1]): decreased | IL-8 expression level (Image J) (IL-8; 0.625 μg/ml ligustilide): 6102.10 | IL-8 expression level (Image J) (IL-8; 1.25 μg/ml ligustilide): 9691.71 | IL-8 expression level (Image J) (IL-8; 2.5 μg/ml ligustilide): 5840.23 | IL-8 expression level (Image J) (IL-8; 5 μg/ml ligustilide): 3487.33 | gene expression level of NURR1 (NURR1; [1]): increased | NURR1 expression level (Image J) (NURR1; 0.625 μg/ml ligustilide): 0.00 | NURR1 expression level (Image J) (NURR1; 1.25 μg/ml ligustilide): 0.00 | NURR1 expression level (Image J) (NURR1; 2.5 μg/ml ligustilide): 6694.43 | NURR1 expression level (Image J) (NURR1; 5 μg/ml ligustilide): 3360.55 | gene expression level of IL-6 (IL-6; [1]): decreased | IL-6 expression level (Image J) (IL-6; 0.625 μg/ml ligustilide): 7756.00 | IL-6 expression level (Image J) (IL-6; 1.25 μg/ml ligustilide): 8204.13 | IL-6 expression level (Image J) (IL-6; 2.5 μg/ml ligustilide): 5629.93 | IL-6 expression level (Image J) (IL-6; 5 μg/ml ligustilide): 2804.03 | gene expression level of SDF1αβ (SDF1αβ; [1]): increased | SDF1αβ expression level (Image J) (SDF1αβ; 0.625 μg/ml ligustilide): 6766.31 | SDF1αβ expression level (Image J) (SDF1αβ; 1.25 μg/ml ligustilide): 4065.23 | SDF1αβ expression level (Image J) (SDF1αβ; 2.5 μg/ml ligustilide): 4791.36 | SDF1αβ expression level (Image J) (SDF1αβ; 5 μg/ml ligustilide): 5767.31 | gene expression level of BDNF (BDNF; [1]): increased | BDNF expression level (Image J) (BDNF; 0.625 μg/ml ligustilide): 5411.77 | BDNF expression level (Image J) (BDNF; 1.25 μg/ml ligustilide): 4915.77 | BDNF expression level (Image J) (BDNF; 2.5 μg/ml ligustilide): 7069.72 | BDNF expression level (Image J) (BDNF; 5 μg/ml ligustilide): 5083.65
